Assay results taken from ChEMBL document CHEMBL5727152, “Ethyldiamine orexin receptor antagonists” (2018).

Molecular target: T1, Orexin receptor type 2 (Homo sapiens, UniProt O43614)
T1 sequence (O43614 whole entry): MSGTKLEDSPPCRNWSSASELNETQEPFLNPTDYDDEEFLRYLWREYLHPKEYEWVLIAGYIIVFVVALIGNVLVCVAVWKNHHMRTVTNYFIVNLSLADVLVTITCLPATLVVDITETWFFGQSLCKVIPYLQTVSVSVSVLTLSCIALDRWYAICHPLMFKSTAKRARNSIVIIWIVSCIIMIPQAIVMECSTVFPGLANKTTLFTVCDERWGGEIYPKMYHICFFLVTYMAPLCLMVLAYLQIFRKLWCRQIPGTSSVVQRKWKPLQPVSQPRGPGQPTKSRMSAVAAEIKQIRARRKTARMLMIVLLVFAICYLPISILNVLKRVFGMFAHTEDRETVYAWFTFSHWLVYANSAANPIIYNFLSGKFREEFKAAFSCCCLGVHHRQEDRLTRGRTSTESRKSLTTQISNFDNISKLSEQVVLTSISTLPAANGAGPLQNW
Assay: FLIPR Ca2+ Flux Assay: In a typical experiment the OX1 and OX2 receptor antagonistic activity of the compounds of the present invention was determined in accordance with the following experimental method. For intracellular calcium measurements, Chinese hamster ovary (CHO) cells expressing the rat orexin-1 receptor or the human orexin-2 receptor, are grown in Iscove's modified DMEM containing 2 mM L-glutamine, […], 1% hypoxanthine-thymidine supplement, 100 U/ml penicillin, 100 μg/ml streptomycin and 10% heat-inactivated fetal calf serum (FCS). The cells are seeded at 20,000 cells/well into Becton-Dickinson black 384-well clear bottom sterile plates coated with poly-D-lysine. All reagents were from GIBCO-Invitrogen Corp. The seeded plates are incubated overnight at 37° C. and 5% CO2. Ala-6,12 human orexin-A as the agonist is prepared as a 1 mM stock solution in 1% bovine serum albumin (BSA) and diluted in assay buffer (HBSS containing 20 mM HEPES, 0.1% BSA and 2.5 mM probenecid, pH7.4) for use in the assay at a final concentration of 70 pM. Test compounds are prepared as 10 mM stock solution in DMSO, then diluted in 384-well plates, first in DMSO, then assay buffer. On the day of the assay, cells are washed 3 times with 100 μl assay buffer and then incubated for 60 min (37° C., 5% CO2) in 60 μl assay buffer containing 1 μM Fluo-4AM ester, 0.02% pluronic acid, and 1% BSA. […]
Type: cell-based

CN(CCN(CC(F)(F)F)C(=O)c1ccccc1-n1nccn1)c1cc(C#N)ccn1
IC50: 113 nM
